Source: ChEMBL document CHEMBL5465560, “Selectivity Literature for EUbOPEN Chemogenomic Library” (2024)

Key:
[1] = biological target: T1, Serine/threonine-protein kinase ULK1 (Homo sapiens) (UniProt O75385); assay: Selectivity interaction (KinomeScan (DiscoverX)) EUB0000229b ULK1; conditions: at 10 µM
T1 sequence (whole entry): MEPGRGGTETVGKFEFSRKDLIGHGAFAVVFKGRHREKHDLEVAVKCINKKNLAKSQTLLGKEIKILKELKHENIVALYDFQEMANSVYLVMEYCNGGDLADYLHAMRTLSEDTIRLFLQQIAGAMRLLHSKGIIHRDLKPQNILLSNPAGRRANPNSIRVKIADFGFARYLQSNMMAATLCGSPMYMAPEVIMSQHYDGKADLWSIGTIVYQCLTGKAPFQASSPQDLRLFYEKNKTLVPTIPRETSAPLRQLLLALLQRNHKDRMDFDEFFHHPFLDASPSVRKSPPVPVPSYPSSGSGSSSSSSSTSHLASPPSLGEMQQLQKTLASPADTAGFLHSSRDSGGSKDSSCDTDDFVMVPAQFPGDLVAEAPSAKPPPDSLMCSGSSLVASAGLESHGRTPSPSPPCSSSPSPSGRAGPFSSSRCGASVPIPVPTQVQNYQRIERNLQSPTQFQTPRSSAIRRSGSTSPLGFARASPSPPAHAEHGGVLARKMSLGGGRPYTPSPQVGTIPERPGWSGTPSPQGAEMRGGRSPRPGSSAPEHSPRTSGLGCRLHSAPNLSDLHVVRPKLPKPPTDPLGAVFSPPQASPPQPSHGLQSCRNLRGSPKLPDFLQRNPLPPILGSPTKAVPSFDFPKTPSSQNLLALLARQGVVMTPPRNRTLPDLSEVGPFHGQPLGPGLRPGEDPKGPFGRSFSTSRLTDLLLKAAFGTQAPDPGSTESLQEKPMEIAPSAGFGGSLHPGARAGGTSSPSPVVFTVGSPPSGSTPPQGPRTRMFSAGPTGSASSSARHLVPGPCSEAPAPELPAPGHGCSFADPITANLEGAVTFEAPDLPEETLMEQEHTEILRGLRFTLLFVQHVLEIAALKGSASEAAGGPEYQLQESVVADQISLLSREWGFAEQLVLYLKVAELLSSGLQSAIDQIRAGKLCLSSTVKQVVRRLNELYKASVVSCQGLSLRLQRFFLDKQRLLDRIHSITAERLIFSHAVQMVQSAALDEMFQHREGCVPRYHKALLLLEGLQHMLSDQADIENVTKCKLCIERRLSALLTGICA

[2] = biological target: T2, Dual specificity mitogen-activated protein kinase kinase 4 (Homo sapiens) (UniProt P45985); conditions: at 10 µM
T2 sequence (whole entry): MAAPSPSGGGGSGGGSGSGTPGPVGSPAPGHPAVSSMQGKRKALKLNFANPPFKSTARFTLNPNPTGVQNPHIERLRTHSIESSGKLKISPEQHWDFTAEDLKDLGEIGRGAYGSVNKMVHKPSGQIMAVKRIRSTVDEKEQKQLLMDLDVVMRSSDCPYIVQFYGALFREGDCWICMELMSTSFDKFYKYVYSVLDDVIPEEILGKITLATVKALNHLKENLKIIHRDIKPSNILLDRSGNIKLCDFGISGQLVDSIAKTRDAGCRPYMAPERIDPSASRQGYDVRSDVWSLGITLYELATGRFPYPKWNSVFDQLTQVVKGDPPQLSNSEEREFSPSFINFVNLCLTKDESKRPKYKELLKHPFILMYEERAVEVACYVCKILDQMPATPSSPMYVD

[3] = biological target: Serine/threonine-protein kinase N1 (Homo sapiens, UniProt Q16512); assay: Selectivity interaction (Kinase panel (Invitrogen)) EUB0000639a PKN1; conditions: at 200 nM
Chain of Serine/threonine-protein kinase N1 (Q16512 2-942 limits assumed): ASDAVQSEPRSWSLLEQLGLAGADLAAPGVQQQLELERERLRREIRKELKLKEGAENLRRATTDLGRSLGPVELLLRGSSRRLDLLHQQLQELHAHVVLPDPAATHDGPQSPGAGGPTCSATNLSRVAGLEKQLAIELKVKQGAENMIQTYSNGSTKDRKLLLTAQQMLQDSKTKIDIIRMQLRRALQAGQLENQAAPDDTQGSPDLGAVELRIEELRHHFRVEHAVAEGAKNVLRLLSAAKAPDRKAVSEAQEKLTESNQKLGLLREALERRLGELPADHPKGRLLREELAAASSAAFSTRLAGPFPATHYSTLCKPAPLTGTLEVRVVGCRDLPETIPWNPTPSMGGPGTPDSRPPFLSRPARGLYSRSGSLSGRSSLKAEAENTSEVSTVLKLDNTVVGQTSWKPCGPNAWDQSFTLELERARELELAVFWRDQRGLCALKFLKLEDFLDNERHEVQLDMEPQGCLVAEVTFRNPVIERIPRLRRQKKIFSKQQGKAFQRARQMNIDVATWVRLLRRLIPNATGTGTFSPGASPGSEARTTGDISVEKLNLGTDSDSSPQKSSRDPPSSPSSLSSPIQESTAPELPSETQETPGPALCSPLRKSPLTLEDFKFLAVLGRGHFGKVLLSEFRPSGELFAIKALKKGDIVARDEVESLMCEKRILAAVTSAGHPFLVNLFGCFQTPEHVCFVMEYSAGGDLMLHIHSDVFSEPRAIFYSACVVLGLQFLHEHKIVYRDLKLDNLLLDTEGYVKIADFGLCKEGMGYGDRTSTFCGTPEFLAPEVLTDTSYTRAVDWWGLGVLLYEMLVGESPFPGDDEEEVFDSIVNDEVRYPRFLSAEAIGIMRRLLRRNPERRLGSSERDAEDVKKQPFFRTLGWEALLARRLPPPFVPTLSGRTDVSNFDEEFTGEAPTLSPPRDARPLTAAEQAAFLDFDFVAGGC

[4] = biological target: Serine/threonine-protein kinase tousled-like 2 (Homo sapiens) (UniProt Q86UE8); assay: Selectivity interaction (ActivX KiNativ screen (kinase selectivity in THP-1 cell lysates)) EUB0000639a TLK2; type: subcellular; conditions: lysate
Chain of Serine/threonine-protein kinase tousled-like 2 (Homo sapiens) (Q86UE8 whole entry, looked up): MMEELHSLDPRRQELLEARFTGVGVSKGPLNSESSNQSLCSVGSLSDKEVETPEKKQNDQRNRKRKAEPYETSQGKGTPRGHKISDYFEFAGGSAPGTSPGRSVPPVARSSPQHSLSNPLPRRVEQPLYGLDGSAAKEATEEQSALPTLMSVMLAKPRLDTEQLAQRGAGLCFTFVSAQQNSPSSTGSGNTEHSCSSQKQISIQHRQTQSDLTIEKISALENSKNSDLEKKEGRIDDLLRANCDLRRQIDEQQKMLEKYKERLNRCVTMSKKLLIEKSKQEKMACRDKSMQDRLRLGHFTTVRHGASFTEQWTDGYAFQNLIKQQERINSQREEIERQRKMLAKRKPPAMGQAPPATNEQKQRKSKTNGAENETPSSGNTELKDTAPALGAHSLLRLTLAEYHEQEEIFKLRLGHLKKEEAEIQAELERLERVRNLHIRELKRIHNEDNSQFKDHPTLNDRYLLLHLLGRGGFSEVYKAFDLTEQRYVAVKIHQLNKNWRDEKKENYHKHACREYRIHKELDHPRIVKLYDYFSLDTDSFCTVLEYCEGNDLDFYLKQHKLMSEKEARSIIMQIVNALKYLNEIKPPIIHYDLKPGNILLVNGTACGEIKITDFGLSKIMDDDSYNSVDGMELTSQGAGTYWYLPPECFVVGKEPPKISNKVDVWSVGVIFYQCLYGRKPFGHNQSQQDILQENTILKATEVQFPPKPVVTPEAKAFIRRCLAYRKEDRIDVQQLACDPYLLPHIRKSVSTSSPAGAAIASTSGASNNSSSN

[5] = biological target: Ephrin type-A receptor 7 (Homo sapiens) (UniProt Q15375); assay: Selectivity interaction (Ambit KINOMEscan and KiNATiv profiling in Jurkat cells) EUB0000090b EPHA7; type: cell-based; conditions: at 1 µM
Chain of Ephrin type-A receptor 7 (Homo sapiens) (Q15375 28-998 limits assumed): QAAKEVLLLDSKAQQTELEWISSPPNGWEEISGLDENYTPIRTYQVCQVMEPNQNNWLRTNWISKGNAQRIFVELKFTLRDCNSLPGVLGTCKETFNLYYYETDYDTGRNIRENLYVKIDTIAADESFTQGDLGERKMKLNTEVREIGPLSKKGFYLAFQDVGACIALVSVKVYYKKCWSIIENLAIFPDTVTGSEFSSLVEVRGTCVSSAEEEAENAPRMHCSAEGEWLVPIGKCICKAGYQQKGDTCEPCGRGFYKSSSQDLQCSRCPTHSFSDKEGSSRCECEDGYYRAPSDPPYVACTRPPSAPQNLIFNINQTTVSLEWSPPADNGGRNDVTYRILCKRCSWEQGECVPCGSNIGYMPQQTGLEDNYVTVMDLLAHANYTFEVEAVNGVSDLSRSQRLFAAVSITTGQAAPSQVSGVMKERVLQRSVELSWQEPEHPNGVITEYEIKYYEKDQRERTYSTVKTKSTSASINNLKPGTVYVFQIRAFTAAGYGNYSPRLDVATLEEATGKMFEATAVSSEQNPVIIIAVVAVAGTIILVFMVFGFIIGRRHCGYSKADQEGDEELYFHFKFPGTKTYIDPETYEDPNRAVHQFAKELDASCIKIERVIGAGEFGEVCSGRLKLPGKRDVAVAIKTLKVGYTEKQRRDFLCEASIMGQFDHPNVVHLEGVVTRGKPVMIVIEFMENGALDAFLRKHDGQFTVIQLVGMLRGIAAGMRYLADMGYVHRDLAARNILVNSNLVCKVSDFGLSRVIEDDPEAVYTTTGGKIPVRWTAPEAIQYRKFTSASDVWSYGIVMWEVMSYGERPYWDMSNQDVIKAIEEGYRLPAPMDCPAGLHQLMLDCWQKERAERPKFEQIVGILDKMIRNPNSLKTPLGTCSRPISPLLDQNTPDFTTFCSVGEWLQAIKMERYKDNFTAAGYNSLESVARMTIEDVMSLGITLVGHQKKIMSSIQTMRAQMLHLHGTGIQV

[6] = biological target: Serine/threonine-protein kinase SIK1 (Homo sapiens) (UniProt P57059); assay: Selectivity interaction (KinomeScan (DiscoverX)) EUB0001619a SIK1; conditions: at 1 µM
Chain of Serine/threonine-protein kinase SIK1 (Homo sapiens) (P57059 whole entry): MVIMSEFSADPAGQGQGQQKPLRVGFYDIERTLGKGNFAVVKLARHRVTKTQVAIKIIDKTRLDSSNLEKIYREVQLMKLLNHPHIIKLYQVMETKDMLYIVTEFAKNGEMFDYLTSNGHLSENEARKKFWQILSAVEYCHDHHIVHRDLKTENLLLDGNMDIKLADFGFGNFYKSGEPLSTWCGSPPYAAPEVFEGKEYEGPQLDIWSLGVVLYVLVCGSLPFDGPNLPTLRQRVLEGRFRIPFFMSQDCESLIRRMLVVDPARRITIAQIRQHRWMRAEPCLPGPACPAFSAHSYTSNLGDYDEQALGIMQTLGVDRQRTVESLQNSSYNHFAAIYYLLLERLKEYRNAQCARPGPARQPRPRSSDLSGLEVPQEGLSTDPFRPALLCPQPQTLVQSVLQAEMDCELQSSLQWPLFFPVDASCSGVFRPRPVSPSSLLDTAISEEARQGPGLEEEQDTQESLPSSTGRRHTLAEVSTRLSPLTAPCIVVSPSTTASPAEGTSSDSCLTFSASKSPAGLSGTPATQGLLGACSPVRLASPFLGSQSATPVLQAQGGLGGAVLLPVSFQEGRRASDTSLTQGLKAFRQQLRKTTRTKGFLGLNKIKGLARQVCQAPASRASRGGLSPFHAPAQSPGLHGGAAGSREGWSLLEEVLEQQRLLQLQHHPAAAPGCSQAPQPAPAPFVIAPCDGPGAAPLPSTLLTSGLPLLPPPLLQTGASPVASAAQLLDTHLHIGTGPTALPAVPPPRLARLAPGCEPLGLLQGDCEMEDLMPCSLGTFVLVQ

[7] = biological target: T3, Serine/threonine-protein kinase D2 (Homo sapiens) (UniProt Q9BZL6); assay: Selectivity interaction (Kinase panel (Z-LYTE Assay)) EUB0001632a PRKD2; conditions: at 10 µM
T3 sequence (whole entry): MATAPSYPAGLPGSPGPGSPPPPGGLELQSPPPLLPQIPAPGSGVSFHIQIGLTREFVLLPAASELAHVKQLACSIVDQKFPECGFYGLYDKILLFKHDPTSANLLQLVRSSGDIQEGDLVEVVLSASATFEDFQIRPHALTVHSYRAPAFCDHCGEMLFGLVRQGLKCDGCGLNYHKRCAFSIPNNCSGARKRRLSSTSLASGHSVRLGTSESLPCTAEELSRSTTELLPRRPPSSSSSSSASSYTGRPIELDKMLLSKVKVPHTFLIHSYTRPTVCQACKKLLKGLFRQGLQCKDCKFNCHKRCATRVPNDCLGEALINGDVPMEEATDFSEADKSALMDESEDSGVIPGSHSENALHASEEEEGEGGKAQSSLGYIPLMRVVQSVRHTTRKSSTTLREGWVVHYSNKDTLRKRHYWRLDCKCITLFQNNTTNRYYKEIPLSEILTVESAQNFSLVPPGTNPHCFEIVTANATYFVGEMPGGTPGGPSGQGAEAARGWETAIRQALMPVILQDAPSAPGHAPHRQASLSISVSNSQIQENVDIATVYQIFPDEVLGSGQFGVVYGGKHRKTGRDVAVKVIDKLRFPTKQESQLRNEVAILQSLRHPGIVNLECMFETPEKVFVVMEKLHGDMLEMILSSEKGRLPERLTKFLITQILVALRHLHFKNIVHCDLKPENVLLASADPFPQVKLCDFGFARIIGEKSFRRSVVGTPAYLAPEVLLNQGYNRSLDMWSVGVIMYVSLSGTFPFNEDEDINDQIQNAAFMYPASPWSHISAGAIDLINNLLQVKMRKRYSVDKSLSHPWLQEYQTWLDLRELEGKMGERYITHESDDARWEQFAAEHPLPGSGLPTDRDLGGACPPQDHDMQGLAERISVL

**Q.** `COc1cc(N(C)c2ccnc3ccc(C(F)(F)F)cc23)cc(OC)c1OC` was tested. Which % binding [1] did it give?
**A.** 73%

**Q.** With `CCN(CC)CCCCNc1ncc2cc(-c3cc(OC)cc(OC)c3)c(NC(=O)NC(C)(C)C)nc2n1` as the molecule, how does the % of control [2] read?
**A.** 100%

**Q.** How did the % of inhibition [3] turn out when `CC[C@@H]1[C@H](F)C(=O)N[C@@H]1COc1nccc2cc(C(N)=O)c(OC)cc12` [ZIMLOVISERTIB] was run?
**A.** 8.54%

**Q.** And the % of inhibition ([4]; at 0.01 µM)?
**A.** 16.6%

**Q.** And the % of inhibition ([4]; at 0.04 µM)?
**A.** 2.6%

**Q.** What about the % of inhibition ([4]; at 0.2 µM) of the same molecule?
**A.** 18.7%

**Q.** And the % of inhibition ([4]; at 1 µM)?
**A.** 46.3%

**Q.** What about the % of inhibition ([4]; at 5 µM) of the same molecule?
**A.** 73.5%

**Q.** How did the % of control [5] turn out when `CN(C)C/C=C/C(=O)Nc1ccc(C(=O)N2CCCC(Nc3ncc(Cl)c(-c4c[nH]c5ccccc45)n3)C2)cc1` (stereo unspecified) was run?
**A.** 93%

**Q.** `N#Cc1cccc(-c2c[nH]c3ncnc(N4CCOCC4)c23)c1` was tested. Which % of control [6] did it give?
**A.** 84%

**Q.** Which % of control [7] does the source give for `Cn1cc(-n2cnc3c(NCc4nc5cc(Cl)c(Cl)cc5[nH]4)nc(N4CCOCC4)nc32)cn1` here?
**A.** 0.629%
